Laboratory results published in ChEMBL document CHEMBL1201862, “PubChem BioAssay data set” (2004).
The source made the active and inactive calls.

Key:
[1] = target: Melanin-concentrating hormone receptor 1 (Homo sapiens, UniProt Q99705); assay: Fluorescence-based counterscreen for antagonists of the G-protein coupled receptor 7 (GPR7): cell-based high throughput dose response assay to identify antagonists of the melanin-concentrating hormone receptor 1 (MCHR1).; assay type: functional
[2] = target: T1, Neuropeptide Y receptor type 2 (Homo sapiens, UniProt P49146); assay: Fluorescence-based counterscreen for agonists of NPY-Y1: cell-based high-throughput dose response assay for agonists of NPY-Y2.; assay type: functional
T1 sequence (P49146 whole entry): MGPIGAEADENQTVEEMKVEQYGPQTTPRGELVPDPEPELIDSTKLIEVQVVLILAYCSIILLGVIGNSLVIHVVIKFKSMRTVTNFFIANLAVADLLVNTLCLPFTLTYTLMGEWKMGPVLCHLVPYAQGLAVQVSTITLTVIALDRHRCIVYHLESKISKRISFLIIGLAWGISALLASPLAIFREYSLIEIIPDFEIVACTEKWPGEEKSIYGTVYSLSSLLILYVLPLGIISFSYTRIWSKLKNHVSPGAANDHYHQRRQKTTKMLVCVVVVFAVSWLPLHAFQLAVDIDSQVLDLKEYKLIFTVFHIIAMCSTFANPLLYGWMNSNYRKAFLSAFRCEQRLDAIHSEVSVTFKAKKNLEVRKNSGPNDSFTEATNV

HEK293 = assay: Fluorescence-based counterscreen for potentiators or agonists of NPY-Y1: cell-based high-throughput dose response assay for inhibitors of cyclic nucleotide gated ion channel (CNGC) activity. In this assay, the parental HEK293 cell line transfected with a cyclic-nucleotide gated ion channel (CNGC)-based cAMP sensor is used to measure inhibition of isoproterenol-induced CNGC …; assay type: functional; conditions: Homo sapiens
[3] = target: T2, Neuropeptide Y receptor type 1 (Homo sapiens, UniProt P25929); assay: Fluorescence-based dose response cell-based high-throughput screening assay for agonists of NPY-Y1. [Related pubchem assays: 1697 (Screening assay (NPY-Y1 agonists).), 1359 (Screening assay (NPY-Y2 potentiators or agonists).), 1304 (Screening assay (NPY-Y1 potentiators or agonists).), 1704 (Screening assay (CNGC inhibitors).), 1791 (Summary AID.)]; assay type: functional
T2 sequence (P25929 whole entry): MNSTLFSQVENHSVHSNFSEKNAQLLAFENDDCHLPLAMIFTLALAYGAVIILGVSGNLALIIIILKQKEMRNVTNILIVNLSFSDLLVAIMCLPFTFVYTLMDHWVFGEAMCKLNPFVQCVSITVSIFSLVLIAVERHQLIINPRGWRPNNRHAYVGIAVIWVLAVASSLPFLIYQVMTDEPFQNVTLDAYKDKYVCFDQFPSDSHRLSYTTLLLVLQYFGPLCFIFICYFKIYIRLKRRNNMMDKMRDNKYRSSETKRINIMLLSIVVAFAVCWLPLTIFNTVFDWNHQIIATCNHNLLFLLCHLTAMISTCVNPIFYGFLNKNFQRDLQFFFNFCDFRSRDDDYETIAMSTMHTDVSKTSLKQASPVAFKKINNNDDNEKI

Mu-type opioid receptor [4] = target: T3, Mu-type opioid receptor (Homo sapiens, UniProt P35372); assay: mu opioid receptor blockers – image-based, SAR follow-up (AID 2420); assay type: functional;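 also: compounds added before stimulation of receptor with agonist DAMGO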
[5] = target: T4, Kappa-type opioid receptor (Homo sapiens, UniProt P41145); assay: SAR analysis of small molecule agonists of the kappa opioid receptor via a luminescent beta-arrestin assay. [Related pubchem assays (depositor defined):AID1777, AID1786, AID1966, AID2133, AID2136, AID2348, AID2352, AID2357, AID2359, AID2370, AID2420, AID2478, AID2491, AID2492, AID2493, AID2497, AID2498, AID2500, AID449737, AID488822, AID488842]; assay type: functional
[6] = target: T5, Delta-type opioid receptor (Homo sapiens, UniProt P41143); assay: delta opioid receptor blockers – image-based, SAR follow-up (AID 2357); assay type: functional
Mu-type opioid receptor [7] = target: T3, Mu-type opioid receptor; assay: mu opioid receptor activators, image-based, SAR follow-up (AID 2352); assay type: functional
[8] = target: T4, Kappa-type opioid receptor; assay: kappa opioid receptor activation potency – imaging, image-based, SAR follow-up (AID 2359); assay type: functional
[9] = target: T5, Delta-type opioid receptor; assay: DOR agonists, SAR follow-up, image-based (AID 2370); assay type: functional
[10] = target: T4, Kappa-type opioid receptor; assay: kappa opioid receptor blockers, image-based, SAR follow-up (AID 2348); assay type: functional
Large T antigen = Large T antigen (Simian virus 40, UniProt P03070); assay type: functional, Betapolyomavirus macacae;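 also: Confirmatory-stage PubChem screen for compounds that inhibit SV40 T antigen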
Procathepsin L = Procathepsin L (Homo sapiens, UniProt P07711)
Albumin = Albumin (Bos taurus, UniProt P02769); assay: Counterscreen for inhibitors of T-cell receptor (TCR)-CD3 interaction: Fluorescence-based biochemical high throughput dose response assay to identify inhibitors of T-cell receptor (TCR)-CD3 interaction using a TAMRA-labeled BSA probe.; assay type: functional
[11] = target: T6, Alkaline phosphatase, tissue-nonspecific isozyme (Homo sapiens, UniProt P05186); assay: activation of tissue-nonspecific alkaline phosphatase – biochemical, TNAP isozyme, mouse IAP uHTS hits, selectivity assay for mouse IAP activator project, dose response (AID 488880); assay type: functional
T6 sequence (P05186 whole entry): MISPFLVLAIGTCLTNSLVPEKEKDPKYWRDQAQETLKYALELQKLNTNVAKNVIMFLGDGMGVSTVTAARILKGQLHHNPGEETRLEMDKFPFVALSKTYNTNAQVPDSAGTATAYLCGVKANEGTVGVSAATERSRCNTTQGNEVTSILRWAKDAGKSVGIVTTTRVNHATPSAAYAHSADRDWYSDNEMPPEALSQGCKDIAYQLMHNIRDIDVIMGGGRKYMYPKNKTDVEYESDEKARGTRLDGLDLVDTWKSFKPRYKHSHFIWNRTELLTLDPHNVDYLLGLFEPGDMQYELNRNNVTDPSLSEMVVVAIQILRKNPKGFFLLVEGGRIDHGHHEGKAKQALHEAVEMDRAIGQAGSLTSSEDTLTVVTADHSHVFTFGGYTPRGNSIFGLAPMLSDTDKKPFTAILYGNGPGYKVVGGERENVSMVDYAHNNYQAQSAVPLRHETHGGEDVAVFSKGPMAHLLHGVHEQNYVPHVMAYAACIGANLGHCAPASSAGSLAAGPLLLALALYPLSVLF

[12] = target: Intestinal-type alkaline phosphatase (Mus musculus, UniProt P24822); assay: mouse intestinal alkaline phosphatase activators, dose response, biochemical, luminescence, uHTS hits (AID 488783); assay type: functional
[13] = viability loss in THP-1 monocytes – THP-1 cells, cytotoxicity control for Vif-APOBEC3G degradation inhibitor project, dose response (AID 1117359); assay type: functional; conditions: THP-1
[14] = target: FAD-linked sulfhydryl oxidase ALR (Homo sapiens, UniProt P55789); assay: ALR-catalysed DTT oxidation blockers – biochemical, H2O2 detection, luminescence, cherry-pick, dose response (AID 493248)
[15] = target: Intestinal-type alkaline phosphatase (Homo sapiens, UniProt P09923); assay: activation of human intestinal alkaline phosphatase – biochemical, dose response (AID 488873); assay type: functional
Aspartyl aminopeptidase = target: T7, Aspartyl aminopeptidase (Plasmodium falciparum 3D7, UniProt Q8I2J3)
T7 sequence (Q8I2J3 whole entry): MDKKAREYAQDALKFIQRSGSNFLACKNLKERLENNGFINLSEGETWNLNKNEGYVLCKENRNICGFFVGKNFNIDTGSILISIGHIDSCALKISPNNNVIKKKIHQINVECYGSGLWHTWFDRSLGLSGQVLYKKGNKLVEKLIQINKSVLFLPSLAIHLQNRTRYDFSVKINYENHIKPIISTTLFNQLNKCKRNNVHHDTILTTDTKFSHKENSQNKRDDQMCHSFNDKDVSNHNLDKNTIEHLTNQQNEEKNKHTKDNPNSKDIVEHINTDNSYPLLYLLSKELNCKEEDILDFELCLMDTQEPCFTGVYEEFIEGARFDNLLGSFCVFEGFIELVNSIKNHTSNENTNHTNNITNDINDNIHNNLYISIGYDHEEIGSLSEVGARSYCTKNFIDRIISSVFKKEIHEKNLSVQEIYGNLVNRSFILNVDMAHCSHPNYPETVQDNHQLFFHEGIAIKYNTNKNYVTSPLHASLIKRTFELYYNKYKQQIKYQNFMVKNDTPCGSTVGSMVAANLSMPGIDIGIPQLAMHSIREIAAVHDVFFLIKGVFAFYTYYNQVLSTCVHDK

Cytochrome P450 2C9 = Cytochrome P450 2C9 (Homo sapiens, UniProt P11712); conditions: Potency
[16] = target: Peroxisome proliferator-activated receptor gamma/Nuclear receptor corepressor 2 (Homo sapiens, UniProt P37231+Q9Y618); assay type: functional
[17] = target: Photoreceptor-specific nuclear receptor (Homo sapiens, UniProt Q9Y5X4); assay type: functional;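 also: potency for compounds that break the NR2E3 corepressor complex and count as activators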
[18] = target: T8, Heat shock factor protein 1 (Mus musculus, UniProt P38532); assay: decrease of HSF1-responsive luciferase luminescence – cell-based, NIH3T3, dose retest, confirmation (AID 2382); assay type: functional;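 also: NIH3T3 fibroblasts with HSF1-driven luciferase reporter stressed by proteasome inhibitor MG132; luminescence from HSF1-driven luciferase expression after 8 hours of MG132 stress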
T8 sequence (P38532 whole entry): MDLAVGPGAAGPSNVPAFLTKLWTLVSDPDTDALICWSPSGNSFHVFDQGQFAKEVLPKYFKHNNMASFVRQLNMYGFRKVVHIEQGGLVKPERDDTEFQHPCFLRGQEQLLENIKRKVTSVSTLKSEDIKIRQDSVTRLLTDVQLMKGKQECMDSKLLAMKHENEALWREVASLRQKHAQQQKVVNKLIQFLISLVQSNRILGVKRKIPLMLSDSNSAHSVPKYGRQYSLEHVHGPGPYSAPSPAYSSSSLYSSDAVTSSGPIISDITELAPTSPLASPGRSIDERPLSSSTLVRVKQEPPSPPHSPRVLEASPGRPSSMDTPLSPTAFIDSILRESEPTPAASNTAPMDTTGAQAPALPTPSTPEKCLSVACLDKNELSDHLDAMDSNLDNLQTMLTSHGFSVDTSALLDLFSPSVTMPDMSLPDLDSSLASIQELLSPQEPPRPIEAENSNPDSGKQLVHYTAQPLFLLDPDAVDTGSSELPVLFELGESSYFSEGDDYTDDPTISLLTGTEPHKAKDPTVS

Protein Rev = Protein Rev (Human immunodeficiency virus type 1 group M subtype B (isolate WMJ22)(HIV-1), UniProt P05866); assay: inhibitors of Rev protein–RRE RNA complex – biochemical, protein-RNA interaction, dose response (AID 842); parameters: species or system Human immunodeficiency virus 1
Cytochrome P450 3A4 = Cytochrome P450 3A4 (Homo sapiens, UniProt P08684);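 also: CYP3A4 tested as one member of a cytochrome P450 panel screen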
Cytochrome P450 1A2 = target: T9, Cytochrome P450 1A2 (Homo sapiens, UniProt P05177);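 also: PubChem cytochrome P450 panel assay, CYP1A2 panel member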
T9 sequence (P05177 whole entry): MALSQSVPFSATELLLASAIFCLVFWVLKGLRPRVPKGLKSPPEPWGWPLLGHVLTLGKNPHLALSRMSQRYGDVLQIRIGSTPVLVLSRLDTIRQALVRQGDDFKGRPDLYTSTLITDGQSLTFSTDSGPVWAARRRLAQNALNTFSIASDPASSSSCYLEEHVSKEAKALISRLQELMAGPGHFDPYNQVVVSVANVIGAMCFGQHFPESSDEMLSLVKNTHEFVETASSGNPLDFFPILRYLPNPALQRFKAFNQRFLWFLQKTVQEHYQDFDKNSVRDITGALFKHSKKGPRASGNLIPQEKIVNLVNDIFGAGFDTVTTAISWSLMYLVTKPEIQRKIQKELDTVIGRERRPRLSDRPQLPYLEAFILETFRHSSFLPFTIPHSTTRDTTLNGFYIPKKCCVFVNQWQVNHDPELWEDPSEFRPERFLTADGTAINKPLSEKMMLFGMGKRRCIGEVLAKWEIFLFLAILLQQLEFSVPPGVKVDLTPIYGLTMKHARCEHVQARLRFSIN

[19] = target: Dual specificity protein phosphatase 3 (Homo sapiens, UniProt P51452); assay: inhibition constants for human DUSP3 – biochemical, colorimetric, SAR follow-up (AID 2004)

T4 sequence (P41145 whole entry): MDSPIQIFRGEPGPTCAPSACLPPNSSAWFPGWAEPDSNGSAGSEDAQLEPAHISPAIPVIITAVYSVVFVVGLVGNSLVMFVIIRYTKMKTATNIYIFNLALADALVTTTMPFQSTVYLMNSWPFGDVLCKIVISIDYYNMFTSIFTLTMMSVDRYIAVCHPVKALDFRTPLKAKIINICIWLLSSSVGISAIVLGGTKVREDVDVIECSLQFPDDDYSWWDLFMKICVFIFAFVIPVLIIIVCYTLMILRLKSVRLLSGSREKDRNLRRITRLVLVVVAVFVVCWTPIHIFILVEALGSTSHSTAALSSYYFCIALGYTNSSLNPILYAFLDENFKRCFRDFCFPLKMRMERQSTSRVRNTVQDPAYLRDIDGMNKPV
T5 sequence (P41143 whole entry): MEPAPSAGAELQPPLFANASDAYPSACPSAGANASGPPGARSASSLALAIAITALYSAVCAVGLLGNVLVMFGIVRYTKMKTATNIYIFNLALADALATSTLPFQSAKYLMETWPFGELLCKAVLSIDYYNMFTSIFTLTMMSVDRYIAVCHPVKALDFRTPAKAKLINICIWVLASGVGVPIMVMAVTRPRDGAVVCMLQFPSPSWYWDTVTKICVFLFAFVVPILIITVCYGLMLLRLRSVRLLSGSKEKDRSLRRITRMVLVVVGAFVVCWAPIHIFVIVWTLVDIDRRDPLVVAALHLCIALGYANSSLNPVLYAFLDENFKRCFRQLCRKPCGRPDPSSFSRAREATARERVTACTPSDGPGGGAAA
T3 sequence (P35372 whole entry): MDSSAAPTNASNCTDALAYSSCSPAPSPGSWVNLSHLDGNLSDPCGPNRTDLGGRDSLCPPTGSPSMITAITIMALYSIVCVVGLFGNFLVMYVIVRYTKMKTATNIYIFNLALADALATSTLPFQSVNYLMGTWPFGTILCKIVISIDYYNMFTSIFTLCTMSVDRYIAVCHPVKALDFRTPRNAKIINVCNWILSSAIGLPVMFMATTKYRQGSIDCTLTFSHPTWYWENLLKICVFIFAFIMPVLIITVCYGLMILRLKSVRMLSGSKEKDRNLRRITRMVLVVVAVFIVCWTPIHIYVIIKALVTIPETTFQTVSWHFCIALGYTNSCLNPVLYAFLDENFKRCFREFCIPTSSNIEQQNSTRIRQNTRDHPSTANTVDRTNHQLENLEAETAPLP
Peroxisome proliferator-activated receptor gamma/Nuclear receptor corepressor 2, sequence (P37231 whole entry): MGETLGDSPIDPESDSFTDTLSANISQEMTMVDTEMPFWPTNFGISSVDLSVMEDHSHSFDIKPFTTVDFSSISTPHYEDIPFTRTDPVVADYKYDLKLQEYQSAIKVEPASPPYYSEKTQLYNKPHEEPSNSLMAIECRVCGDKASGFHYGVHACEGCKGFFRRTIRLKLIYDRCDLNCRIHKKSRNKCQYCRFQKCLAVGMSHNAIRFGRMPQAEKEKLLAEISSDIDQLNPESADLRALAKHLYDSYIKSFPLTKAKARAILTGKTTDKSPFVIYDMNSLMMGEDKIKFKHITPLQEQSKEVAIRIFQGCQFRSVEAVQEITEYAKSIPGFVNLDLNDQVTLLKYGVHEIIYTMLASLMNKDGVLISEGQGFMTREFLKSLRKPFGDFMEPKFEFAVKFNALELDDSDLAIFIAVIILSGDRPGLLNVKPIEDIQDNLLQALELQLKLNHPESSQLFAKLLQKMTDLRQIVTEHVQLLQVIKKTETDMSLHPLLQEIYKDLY
Peroxisome proliferator-activated receptor gamma/Nuclear receptor corepressor 2, sequence (Q9Y618 whole entry): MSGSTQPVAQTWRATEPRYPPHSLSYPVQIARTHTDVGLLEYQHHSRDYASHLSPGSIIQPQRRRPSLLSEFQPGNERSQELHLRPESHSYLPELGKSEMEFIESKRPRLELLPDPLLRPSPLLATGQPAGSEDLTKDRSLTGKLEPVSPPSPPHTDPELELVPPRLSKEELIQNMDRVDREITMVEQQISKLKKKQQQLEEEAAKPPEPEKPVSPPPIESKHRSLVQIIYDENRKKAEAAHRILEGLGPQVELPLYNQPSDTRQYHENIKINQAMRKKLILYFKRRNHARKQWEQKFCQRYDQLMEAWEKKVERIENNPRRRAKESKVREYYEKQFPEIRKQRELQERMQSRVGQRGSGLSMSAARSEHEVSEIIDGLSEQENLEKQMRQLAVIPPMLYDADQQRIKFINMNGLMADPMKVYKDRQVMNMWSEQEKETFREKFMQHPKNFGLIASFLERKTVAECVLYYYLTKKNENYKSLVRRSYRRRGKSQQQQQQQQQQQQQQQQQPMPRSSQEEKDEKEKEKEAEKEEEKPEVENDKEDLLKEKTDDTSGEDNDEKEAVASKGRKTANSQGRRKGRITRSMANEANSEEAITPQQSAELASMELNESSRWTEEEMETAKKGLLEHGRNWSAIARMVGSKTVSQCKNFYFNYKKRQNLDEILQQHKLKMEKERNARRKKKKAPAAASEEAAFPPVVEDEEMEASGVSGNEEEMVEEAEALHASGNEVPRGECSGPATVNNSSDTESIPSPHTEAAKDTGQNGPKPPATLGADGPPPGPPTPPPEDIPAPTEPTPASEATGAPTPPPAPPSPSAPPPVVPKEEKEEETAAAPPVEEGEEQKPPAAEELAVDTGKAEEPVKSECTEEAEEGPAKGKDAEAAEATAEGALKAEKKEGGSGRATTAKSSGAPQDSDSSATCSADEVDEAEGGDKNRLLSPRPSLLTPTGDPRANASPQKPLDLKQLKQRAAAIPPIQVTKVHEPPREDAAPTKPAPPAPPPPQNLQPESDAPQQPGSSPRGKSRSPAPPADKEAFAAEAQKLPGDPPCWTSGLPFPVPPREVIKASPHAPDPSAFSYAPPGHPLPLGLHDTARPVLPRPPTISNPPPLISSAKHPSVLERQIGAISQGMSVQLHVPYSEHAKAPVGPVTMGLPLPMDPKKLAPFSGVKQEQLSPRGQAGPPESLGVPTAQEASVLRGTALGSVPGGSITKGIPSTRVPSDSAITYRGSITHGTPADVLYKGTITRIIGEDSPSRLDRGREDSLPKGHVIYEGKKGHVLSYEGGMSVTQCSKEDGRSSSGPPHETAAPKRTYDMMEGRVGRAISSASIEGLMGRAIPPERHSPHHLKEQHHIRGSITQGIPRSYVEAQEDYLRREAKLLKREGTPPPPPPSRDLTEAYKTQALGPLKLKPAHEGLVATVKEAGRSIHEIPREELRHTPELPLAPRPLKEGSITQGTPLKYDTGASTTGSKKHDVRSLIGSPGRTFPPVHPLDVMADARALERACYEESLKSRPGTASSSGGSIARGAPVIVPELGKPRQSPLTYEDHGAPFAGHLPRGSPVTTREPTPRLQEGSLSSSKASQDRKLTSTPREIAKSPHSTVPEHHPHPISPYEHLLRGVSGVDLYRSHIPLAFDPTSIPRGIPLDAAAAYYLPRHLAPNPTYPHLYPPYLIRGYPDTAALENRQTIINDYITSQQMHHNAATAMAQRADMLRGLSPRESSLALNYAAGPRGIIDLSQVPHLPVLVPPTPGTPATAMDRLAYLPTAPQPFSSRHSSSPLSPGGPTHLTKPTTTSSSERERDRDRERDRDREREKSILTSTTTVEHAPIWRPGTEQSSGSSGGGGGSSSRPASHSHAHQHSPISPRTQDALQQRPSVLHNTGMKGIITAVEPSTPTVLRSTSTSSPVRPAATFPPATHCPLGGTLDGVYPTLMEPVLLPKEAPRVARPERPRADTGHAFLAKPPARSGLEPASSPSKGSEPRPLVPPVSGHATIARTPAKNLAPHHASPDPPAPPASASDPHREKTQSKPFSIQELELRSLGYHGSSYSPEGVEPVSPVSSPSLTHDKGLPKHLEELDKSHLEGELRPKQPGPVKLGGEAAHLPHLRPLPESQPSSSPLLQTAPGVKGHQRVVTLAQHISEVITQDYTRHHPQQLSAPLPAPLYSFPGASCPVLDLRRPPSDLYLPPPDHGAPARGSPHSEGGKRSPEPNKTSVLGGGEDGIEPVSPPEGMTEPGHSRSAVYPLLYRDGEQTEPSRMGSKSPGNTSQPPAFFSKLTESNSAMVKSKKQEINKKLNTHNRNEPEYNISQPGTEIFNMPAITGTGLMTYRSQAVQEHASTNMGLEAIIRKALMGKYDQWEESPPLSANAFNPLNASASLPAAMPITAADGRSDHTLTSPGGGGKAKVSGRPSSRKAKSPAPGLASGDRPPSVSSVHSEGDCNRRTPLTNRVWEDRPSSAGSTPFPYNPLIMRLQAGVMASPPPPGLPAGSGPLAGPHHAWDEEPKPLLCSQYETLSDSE
Protein Rev, sequence (P05866 whole entry): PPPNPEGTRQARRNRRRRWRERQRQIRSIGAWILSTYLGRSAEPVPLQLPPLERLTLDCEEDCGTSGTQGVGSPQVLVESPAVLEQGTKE
Large T antigen, sequence (P03070 whole entry): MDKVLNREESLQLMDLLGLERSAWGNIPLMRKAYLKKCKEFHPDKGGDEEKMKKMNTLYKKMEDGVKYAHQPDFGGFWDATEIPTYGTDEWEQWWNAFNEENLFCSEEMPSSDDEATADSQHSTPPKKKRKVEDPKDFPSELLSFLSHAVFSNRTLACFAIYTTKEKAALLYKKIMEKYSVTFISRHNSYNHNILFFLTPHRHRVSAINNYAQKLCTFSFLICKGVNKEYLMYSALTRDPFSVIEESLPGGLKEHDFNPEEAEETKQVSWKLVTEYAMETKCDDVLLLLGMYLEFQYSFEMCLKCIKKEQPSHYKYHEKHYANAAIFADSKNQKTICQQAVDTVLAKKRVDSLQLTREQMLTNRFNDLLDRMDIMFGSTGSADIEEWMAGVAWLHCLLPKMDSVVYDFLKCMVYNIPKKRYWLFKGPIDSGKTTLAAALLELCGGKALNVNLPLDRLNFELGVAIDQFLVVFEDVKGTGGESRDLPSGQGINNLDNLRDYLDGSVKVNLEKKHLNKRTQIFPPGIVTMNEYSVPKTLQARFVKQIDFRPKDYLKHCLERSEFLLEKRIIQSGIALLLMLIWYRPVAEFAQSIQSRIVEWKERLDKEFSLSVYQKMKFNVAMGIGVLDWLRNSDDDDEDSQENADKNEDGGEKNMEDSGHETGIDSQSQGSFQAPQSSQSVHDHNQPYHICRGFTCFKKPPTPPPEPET

## COC(=O)[C@@H](Cc1c[nH]c2ccccc12)NC(=O)CCC(=O)c1ccc(Br)cc1
[1]
  IC50: 24.5 µM (not active)

## COc1ccccc1Oc1ccc(-c2cnc3ccccc3n2)cc1[N+](=O)[O-]
[2]
  EC50: > 35.4 µM (not active)
HEK293
  IC50: > 35.4 µM (not active)
[3]
  EC50: > 35.4 µM (not active)

## CCCN(Cc1cc2ccc(C)cc2[nH]c1=O)C(=O)c1ccccn1
Mu-type opioid receptor [4]
  IC50: > 32 µM (inactive)
[5]
  EC50: > 10 µM (inactive)
[6]
  IC50: > 32 µM (inactive)
Mu-type opioid receptor [7]
  EC50: > 32 µM (inactive)
[8]
  EC50: > 32 µM (inactive)
[9]
  EC50: > 32 µM (inactive)
[10]
  IC50: > 32 µM (inactive)

## Oc1ccc(/C=N/N=C/c2ccc(O)c(O)c2)cc1O
Large T antigen
  IC50: 1.15 µM (active)
Procathepsin L
  IC50: > 59.6 µM (not active)
Albumin
  IC50: > 94.1 µM (inactive)
[11]
  EC50: 37.4 µM (active)
[12]
  EC50: 18 µM (active)
[13]
  CC50: 39.1 µM (active)
[14]
  AC50: 0.543 µM (active)
[15]
  EC50: 27.3 µM (active)
Aspartyl aminopeptidase
  IC50: 1.75 µM (active)

## CC(C)(C)c1ccc(OC2C(O)COC2/C=C/C#Cc2ccccc2)cc1 (stereo not drawn)
Cytochrome P450 2C9
  AC50: 5.01 µM (inconclusive)

## CSc1nc(O)c(C#N)c(-c2ccccc2)n1
[16]
  IC50: 5.34 µM (active)
[17]
  IC50: > 39.8 µM (not active)

## CC[n+]1c(/C=C/Nc2ccccc2)oc2ccccc21
[18]
  EC50: > 195 µM (not active)
Protein Rev
  IC50: 5.66 µM (active)
Cytochrome P450 3A4
  AC50: 25.1 µM (inconclusive)
Cytochrome P450 1A2
  AC50: 15.8 µM (inconclusive)

## COc1cccc(/C=C2/C(=O)NC(=O)N(c3cccc(C)c3)C2=O)c1O
[19]
  Ki: 33.1 µM (inactive)
